# Experimental data reported in the Kinase Knowledgebase extract (Sharma et al. 2016).
# Target: CDK2 (UniProt P24941)
# Assay: Enzyme Assay
row,IC50,Compound
1,10 nM,CN(C)S(=O)(=O)c1ccc(NN=C2C(=O)Nc3ccc(O)cc32)cc1
2,1280 nM,CN1CCC(c2c(O)cc(O)c3c2O/C(=C\c2ccccc2)C3=O)CC1
3,> 10000 nM,COc1ccc2c(c1)C(=NNc1ccccc1)C(=O)N2
4,> 10000 nM,O=C1Nc2ccc(Br)cc2C1=NNc1ccccc1
5,310 nM,CN1CCC(c2c(O)cc(O)c3c2O/C(=C\c2ccc([N+](=O)[O-])cc2)C3=O)CC1
6,30 nM,CN1CCC(c2c(O)cc(O)c3c2O/C(=C\c2ccc(S(N)(=O)=O)cc2)C3=O)CC1
7,> 10000 nM,O=C1Nc2ccccc2C1=NNc1ccccc1
8,3970 nM,CN1CCC(c2c(O)cc(O)c3c2O/C(=C\c2ccccc2Cl)C3=O)CC1

# Target: MAPK14 (UniProt Q16539)
# Sequence (Q16539 whole entry, looked up): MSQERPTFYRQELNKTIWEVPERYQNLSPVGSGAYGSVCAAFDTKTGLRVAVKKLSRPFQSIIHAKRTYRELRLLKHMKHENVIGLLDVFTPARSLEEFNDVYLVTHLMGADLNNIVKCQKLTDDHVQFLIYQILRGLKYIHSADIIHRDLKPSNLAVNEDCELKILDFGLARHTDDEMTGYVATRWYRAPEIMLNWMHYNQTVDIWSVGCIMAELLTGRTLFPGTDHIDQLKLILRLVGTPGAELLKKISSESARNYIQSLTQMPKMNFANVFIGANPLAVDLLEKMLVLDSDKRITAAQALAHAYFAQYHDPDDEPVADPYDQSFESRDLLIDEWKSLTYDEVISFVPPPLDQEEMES
# Assay: Inhibition of MAPK14 Kinase Activity
row,Kd,Compound
1,5 nM,CC(C)(C)c1cc(NC(=O)Nc2cccc3ccccc23)n(-c2ccccc2)n1
2,4 nM,Cc1ccc(-n2nc(C(C)(C)C)cc2NC(=O)Nc2ccccc2)cc1C
3,21 nM,CC(C)(C)c1cc(NC(=O)Nc2ccccc2)n(-c2ccncc2)n1
4,760 nM,CC(C)(c1ccccc1)c1cc(NC(=O)Nc2ccccc2)n(-c2ccccc2)n1
5,500 nM,CC(C)(C)c1cc(NC(=O)Nc2ccccc2)n(C2CCCCC2)n1
6,8 nM,CC(C)(C)c1cc(NC(=O)Nc2ccc(Cl)cc2)n(-c2ccccc2)n1
7,12 nM,CCC(C)(C)c1cc(NC(=O)Nc2ccccc2)n(-c2ccccc2)n1
8,22 nM,CC1(c2cc(NC(=O)Nc3ccccc3)n(-c3ccccc3)n2)CCCCC1
9,14 nM,CC(C)(C)c1cc(NC(=O)NC2Cc3ccccc3C2)n(-c2ccccc2)n1
10,8 nM,CC(C)(C)c1cc(NC(=O)Nc2ccccc2)n(-c2ccc3ccccc3c2)n1
11,> 7000 nM,CC(C)(C)c1cc(NC(N)=O)n(-c2ccccc2)n1
12,> 400 nM,O=C(Nc1ccccc1)Nc1cc(C2CCCCC2)nn1-c1ccccc1
13,3 nM,Cc1cccc(NC(=O)Nc2cc(C(C)(C)C)nn2-c2ccccc2)c1C
14,2 nM,Cc1cccc(-n2nc(C(C)(C)C)cc2NC(=O)Nc2ccccc2)c1
15,318 nM,CC(C)(C)c1cc(NC(=O)Nc2ccc(N)cc2)n(-c2ccccc2)n1
16,100 nM,CC(C)(C)c1cc(NC(=O)Nc2cccc(N)c2)n(-c2ccccc2)n1

row,Kd,Compound
1,130 nM,CC(C)(C)c1cc(NC(=O)NC2CCCCC2)n(-c2ccccc2)n1
2,1200 nM,CC(C)(C)c1cc(NC(=O)Nc2ccncc2)n(-c2ccccc2)n1
3,420 nM,CC(C)(C)c1cc(NC(=O)Nc2cccnc2)n(-c2ccccc2)n1
4,31 nM,COc1ccc(-n2nc(C(C)(C)C)cc2NC(=O)Nc2ccccc2)cc1
5,19 nM,COc1cccc(-n2nc(C(C)(C)C)cc2NC(=O)Nc2ccccc2)c1
6,1 nM,Cc1ccc(-n2nc(C(C)(C)C)cc2NC(=O)Nc2cccc3ccccc23)cc1
7,7 nM,CC(C)(C)c1cc(NC(=O)Nc2ccccc2)n(-c2ccc(N)cc2)n1
8,13 nM,CC(C)(C)c1cc(NC(=O)Nc2ccccc2)n(-c2ccccc2)n1
9,1400 nM,COCC(C)(C)c1cc(NC(=O)Nc2ccccc2)n(-c2ccccc2)n1
10,400 nM,CC(C)(C)c1cc(NC(=O)Nc2ccccn2)n(-c2ccccc2)n1
11,200 nM,Cc1ccccc1-n1nc(C(C)(C)C)cc1NC(=O)Nc1ccccc1
12,260 nM,CC(C)(C)c1cc(NC(=O)NCCc2ccccc2)n(-c2ccccc2)n1
13,> 7000 nM,Cc1cc(NC(=O)Nc2ccccc2)n(-c2ccccc2)n1
14,330 nM,CC(C)c1cc(NC(=O)Nc2ccccc2)n(-c2ccccc2)n1
15,47 nM,CC(C)(C)c1cc(NC(=O)NCc2ccccc2)n(-c2ccccc2)n1
16,280 nM,CC1(c2cc(NC(=O)Nc3ccccc3)n(-c3ccccc3)n2)CCOCC1

row,Compound,Kd
1,Cc1ccc(-n2nc(C(C)(C)C)cc2NC(=O)Nc2ccccc2F)cc1,14 nM
2,Cc1ccc(-n2nc(C(C)(C)C)cc2NC(=O)Nc2ccccc2)cc1,3 nM
